Results reported in ChEMBL document CHEMBL1201862, “PubChem BioAssay data set” (2004).
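Assay format: 96-well plates, 48-hour exposure. Here, GI50 denotes the concentration required for 50% inhibition of growth.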 Calls of active or inactive are those of the source. Cut-off read from the data, not from the text of the source: active = GI50 up to about 1.1 µM and inactive = higher.

Key:
Assay in all cases: NCI-60 cell line screen, 48 h
[1] = test system: UACC-257
[2] = test system: NCI-H226
[3] = test system: COLO 205
[4] = test system: SN12C
[5] = test system: SK-MEL-2
[6] = test system: SR
[7] = test system: TK-10
[8] = test system: OVCAR-3
[9] = test system: MDA-MB-231
[10] = test system: BT-549
[11] = test system: SK-OV-3
[12] = test system: 786-0
[13] = test system: NCI/ADR-RES
[14] = test system: A498
[15] = test system: HCT-15
[16] = test system: MDA-MB-435
[17] = test system: MCF7
[18] = test system: OVCAR-8
[19] = test system: T47D
[20] = test system: HL-60
[21] = test system: PC-3
[22] = test system: SF-539
[23] = test system: HT-29
[24] = test system: EKVX
[25] = test system: IGROV-1
[26] = test system: Hs-578T
[27] = test system: M14
[28] = test system: Malme-3M
[29] = test system: RPMI-8226
[30] = test system: CAKI-1
[31] = test system: K562
[32] = test system: LOX IMVI
[33] = test system: UACC-62
[34] = test system: SK-MEL-5
[35] = test system: NCI-H522
[36] = test system: SK-MEL-28
[37] = test system: SF-268
[38] = test system: HCT-116
[39] = test system: RXF 393
[40] = test system: U-251
[41] = test system: OVCAR-5
[42] = test system: SNB-19
[43] = test system: HOP-92
[44] = test system: DU-145
[45] = test system: MDA-N
[46] = test system: OVCAR-4
[47] = test system: HCC 2998
[48] = test system: KM12
[49] = test system: SNB-75
[50] = test system: A549
[51] = test system: UO-31
[52] = test system: NCI-H460
[53] = test system: SW-620

Cc1cc(S(=O)(=O)n2ccnc2Oc2ccccc2)c(SSc2cc(Cl)c(C)cc2S(=O)(=O)n2ccnc2Oc2ccccc2)cc1Cl
GI50 [1]: > 100 µM (inactive)
GI50 [2]: 15.9 µM (inactive)
GI50 [3]: > 100 µM (inactive)
GI50 [4]: 85.5 µM (inactive)
GI50 [5]: > 100 µM (inactive)
GI50 [6]: 44 µM (inactive)
GI50 [7]: > 100 µM (inactive)
GI50 [8]: > 100 µM (inactive)
GI50 [9]: > 100 µM (inactive)
GI50 [10]: > 100 µM (inactive)
GI50 [11]: > 100 µM (inactive)
GI50 [12]: 93.3 µM (inactive)
GI50 [13]: 43.4 µM (inactive)
GI50 [14]: > 100 µM (inactive)
GI50 [15]: > 100 µM
GI50 [16]: > 100 µM (inactive)
GI50 [17]: > 100 µM (inactive)
GI50 [18]: > 100 µM (inactive)
GI50 [19]: > 100 µM (inactive)
GI50 [20]: 2.32 µM (inactive)
GI50 [21]: > 100 µM (inactive)
GI50 [22]: > 100 µM (inactive)
GI50 [23]: > 100 µM (inactive)
GI50 [24]: 5.31 µM (inactive)
GI50 [25]: 42.6 µM (inactive)
GI50 [26]: 1.95 µM (inactive)
GI50 [27]: > 100 µM (inactive)
GI50 [28]: 57.5 µM (inactive)
GI50 [29]: > 100 µM (inactive)
GI50 [30]: > 100 µM (inactive)
GI50 [31]: > 100 µM (inactive)
GI50 [32]: > 100 µM (inactive)
GI50 [33]: > 100 µM (inactive)
GI50 [34]: 24.9 µM (inactive)
GI50 [35]: 5.93 µM (inactive)
GI50 [36]: > 100 µM (inactive)
GI50 [37]: 59.6 µM (inactive)
GI50 [38]: > 100 µM (inactive)
GI50 [39]: > 100 µM (inactive)
GI50 [40]: > 100 µM (inactive)
GI50 [41]: > 100 µM (inactive)
GI50 [42]: > 100 µM (inactive)
GI50 [43]: > 100 µM (inactive)
GI50 [44]: 74.1 µM (inactive)
GI50 [45]: > 100 µM (inactive)
GI50 [46]: 35.3 µM (inactive)
GI50 [47]: > 100 µM (inactive)
GI50 [48]: > 100 µM (inactive)
GI50 [49]: 1.01 µM (active)
GI50 [50]: > 100 µM (inactive)
GI50 [51]: > 100 µM (inactive)
GI50 [52]: > 100 µM (inactive)
GI50 [53]: > 100 µM (inactive)
